According to US20160367557A1, “HE[…] ACID DERIVATIVES WHICH ARE USEFUL IN THE TREATMENT, AMELIORATION OR PREVENTION OF A VIRAL DISEASE” (Savira pharmaceuticals GmbH, priority 2012, published 2016):
pIC50: −log10 of the molar value.

Assays:
[1] = tested on: influenza A virus (IAV) A/Aichi/2/68 (H3N2); assay: Cytopathic effect (CPE) assay; format: cell-based; settings: MDCK cells, 48 hrs
MDCK cells = assay: Cytotoxicity in uninfected cells of the CPE assay; format: cell-based, canine; settings: at 50 μM
Procedure: After removal of the culture medium and one washing step with PBS, virus and compound were added together to the cells. In the wells used for cytotoxicity determination (i.e. in the absence of viral infection), no virus suspension was added. Instead, infection medium was added. Each treatment was conducted in two replicates. After incubation at 37° C., 5% CO2 for 48 hrs, each well was observed microscopically for apparent cytotoxicity, precipitate formation, or other notable abnormalities. Then, cell viability was determined using CellTiter-Glo luminescent cell viability assay (Promega). The supernatant was removed carefully and 65 μl of the reconstituted reagent were added to each well and incubated with gentle shaking for 15 min at room temperature. Then, 60 μl of the solution was transferred to an opaque plate and luminescence (RLU) was measured using Synergy HT plate reader (Biotek).
Relative cell viability values of uninfected-treated versus uninfected-untreated cells were used to evaluate cytotoxicity of the compounds. Substances with a relative viability below 80% at the tested concentration were regarded as cytotoxic and retested at lower concentrations.

[2] = target: T1, influenza A virus (IAV) PA-Nter fragment (amino acids 1-209) (Influenza A virus, UniProt P31343); assay: FRET endonuclease activity assay; format: biochemical; settings: for pIC50: calculated from initial reaction velocities (v0)
T1 construct: PA-Nter fragment (amino acids 1-209); made in house

O=C(O)c1cn(CCc2cccc(F)c2)c2cc(C3CC3)nn2c1=O
melting point: 220 to 225 °C

CCOC(=O)c1cn(CCc2ccc(Cl)cc2)c2cc(C3CC3)nn2c1=O
melting point: 190 to 195 °C

CCOC(=O)c1cn(CCc2cccc(C(F)(F)F)c2)c2cc(C3CC3)nn2c1=O
melting point: 140 to 145 °C

CCOC(=O)c1cn(CCCc2ccccc2)c2cc(C3CC3)nn2c1=O
melting point: 150 to 155 °C

CCOC(=O)c1cn(Cc2ccccc2)c2cc(C3CCCC3)nn2c1=O
melting point: 148 to 150 °C

O=C(O)c1c[nH]c2nc(NCc3cccc4ccccc34)nn2c1=O
melting point: 245 to 250 °C

CSC1=NC2C(=O)C(C(=O)O)=CN(Cc3ccccc3-c3ccccc3)C2S1 (stereo not drawn)
CPE activity in words [1]: inactive | Cytotoxicity (relative viability below 80% regarded as cytotoxic) (MDCK cells): Toxic

O=C(O)c1cn(Cc2ccccc2-c2ccccc2)c2nc(NCc3ccccc3)sc2c1=O
FRET activity in words [2]: inactive

O=C(O)c1cn(Cc2ccccc2-c2ccccc2)c2sc(NC3CCCC3)nc2c1=O
CPE activity in words [1]: inactive | Cytotoxicity (relative viability below 80% regarded as cytotoxic) (MDCK cells): toxic

O=C(O)c1cn(Cc2ccccc2-c2ccccc2)c2sc(N3CCCCC3)nc2c1=O
FRET activity in words [2]: inactive

CNC(=O)c1cn(Cc2ccccc2-c2ccccc2)c2sc(NCc3ccccc3)nc2c1=O
FRET activity in words [2]: inactive

O=C(O)c1cn(Cc2ccccc2-c2ccccc2)c2nc(NC3CCCC3)sc2c1=O
FRET activity in words [2]: inactive

O=C(O)c1cn(Cc2ccccc2-c2ccccc2)c2sc(NS(=O)(=O)c3ccc(Cl)cc3)nc2c1=O
pIC50 ([1]; Influenza A virus, H3N2): 4.74 | pIC50 [2]: 5.66

CCOC(=O)c1cn(Cc2ccccc2-c2ccccc2)c2sc(NS(=O)(=O)c3ccc(Cl)cc3F)nc2c1=O
pIC50 ([1]; Influenza A virus, H3N2): 4.41 | FRET activity in words [2]: inactive

O=CNc1nc2c(=O)c(C(=O)O)cn(Cc3ccccc3-c3ccccc3)c2s1
CPE activity in words [1]: inactive | pIC50 [2]: 4.33

CCOC(=O)c1cn(Cc2ccccc2-c2ccccc2)c2sc(SC)nc2c1=S
inhibition at 50 µM ([1]; Influenza A virus, H3N2, @ 50 μM, read-out: CPE % reduction): 35% | FRET activity in words [2]: inactive

Cc1[nH]c2ncnn2c(=O)c1CC(=O)O
FRET activity in words [2]: inactive

O=C(O)c1c[nH]c2ccnn2c1=O [drawing 208]
inhibition at 5 µM ([2]; 20 min, @ 5 μM, read-out: FRET % reduction of v0): 26%

O=C(O)c1cn(CCc2ccccc2)c2cc(C3CCCC3)nn2c1=O [drawing 219]
CPE activity in words [1]: inactive | FRET % reduction of v0 ([2]; @ 25 μM): 26% @ 25 μM

Nc1cc2n(C(=O)C3(c4ccccc4)CCCC3)cc(C(=O)O)c(=O)n2n1 [drawing 232]
FRET activity in words [2]: inactive
